Laboratory results published in PubChem BioAssay (NCI).
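Following 48 hours of exposure in 96-well plates, responses at five concentrations were used to interpolate endpoints linearly. Definition used: TGI = concentration required for complete inhibition of growth.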

Legend:
Assay in all cases: NCI tumour cell line growth inhibition, 48 h
[1] = test system: 786-0 renal
[2] = test system: A549 NSCLC
[3] = test system: ACHN renal
[4] = test system: CAKI-1 renal
[5] = test system: COLO 205 colon
[6] = test system: DLD-1 colon
[7] = test system: DMS 114 small cell lung
[8] = test system: DMS 273 small cell lung
[9] = test system: EKVX NSCLC
[10] = test system: HCC-2998 colon
[11] = test system: HCT-116 colon
[12] = test system: HCT-15 colon
[13] = test system: HOP-18 NSCLC
[14] = test system: HOP-62 NSCLC
[15] = test system: HOP-92 NSCLC
[16] = test system: HT29 colon
[17] = test system: IGROV1 ovarian
[18] = test system: KM12 colon
[19] = test system: KM20L2 colon
[20] = test system: LOX IMVI melanoma
[21] = test system: LXFL 529 NSCLC
[22] = test system: M14 melanoma
[23] = test system: M19-MEL melanoma
[24] = test system: MALME-3M melanoma
[25] = test system: NCI-H226 lung
[26] = test system: NCI-H23 lung
[27] = test system: NCI-H460 lung
[28] = test system: OVCAR-3 ovarian
[29] = test system: OVCAR-4 ovarian
[30] = test system: OVCAR-5 ovarian
[31] = test system: OVCAR-8 ovarian
[32] = test system: RPMI-8226 leukemia
[33] = test system: RXF 393 renal
[34] = test system: SF-268 CNS
[35] = test system: SF-295 CNS
[36] = test system: SF-539 CNS
[37] = test system: SK-MEL-2 melanoma
[38] = test system: SK-MEL-28 melanoma
[39] = test system: SK-OV-3 ovarian
[40] = test system: SN12C renal
[41] = test system: SNB-19 CNS
[42] = test system: SNB-75 CNS
[43] = test system: SNB-78 CNS
[44] = test system: SW-620 colon
[45] = test system: TK-10 renal
[46] = test system: U251 CNS
[47] = test system: UACC-257 melanoma
[48] = test system: UACC-62 melanoma
[49] = test system: UO-31 renal
[50] = test system: XF 498 CNS
[51] = test system: A498 renal
[52] = test system: CCRF-CEM leukemia
[53] = test system: HL-60(TB) leukemia
[54] = test system: K-562 leukemia
[55] = test system: MOLT-4 leukemia
[56] = test system: NCI-H522 lung
[57] = test system: SK-MEL-5 melanoma
[58] = test system: SR leukemia

## CCOC(=O)C(=O)Nc1c(C)cccc1C
[1]
  TGI: > 100 µM
[2]
  TGI: > 100 µM
[3]
  TGI: > 100 µM
[4]
  TGI: > 100 µM
[5]
  TGI: > 100 µM
[6]
  TGI: > 100 µM
[7]
  TGI: > 100 µM
[8]
  TGI: > 100 µM
[9]
  TGI: > 100 µM
[10]
  TGI: > 100 µM
[11]
  TGI: > 100 µM
[12]
  TGI: > 100 µM
[13]
  TGI: > 100 µM
[14]
  TGI: > 100 µM
[15]
  TGI: > 100 µM
[16]
  TGI: > 100 µM
[17]
  TGI: > 100 µM
[18]
  TGI: > 100 µM
[19]
  TGI: > 100 µM
[20]
  TGI: > 100 µM
[21]
  TGI: > 100 µM
[22]
  TGI: > 100 µM
[23]
  TGI: > 100 µM
[24]
  TGI: > 100 µM
[25]
  TGI: > 100 µM
[26]
  TGI: > 100 µM
[27]
  TGI: > 100 µM
[28]
  TGI: > 100 µM
[29]
  TGI: > 100 µM
[30]
  TGI: > 100 µM
[31]
  TGI: > 100 µM
[32]
  TGI: > 100 µM
[33]
  TGI: > 100 µM
[34]
  TGI: > 100 µM
[35]
  TGI: > 100 µM
[36]
  TGI: > 100 µM
[37]
  TGI: > 100 µM
[38]
  TGI: > 100 µM
[39]
  TGI: > 100 µM
[40]
  TGI: > 100 µM
[41]
  TGI: > 100 µM
[42]
  TGI: > 100 µM
[43]
  TGI: > 100 µM
[44]
  TGI: > 100 µM
[45]
  TGI: > 100 µM
[46]
  TGI: > 100 µM
[47]
  TGI: > 100 µM
[48]
  TGI: > 100 µM
[49]
  TGI: > 100 µM
[50]
  TGI: > 100 µM

## CCCCCCCCCCCCCCCCCCCCCC(=O)Nc1ccn(C2OC(CO)C(O)C2O)c(=O)n1 (stereo not drawn)
[1]
  TGI: > 100 µM
[51]
  TGI: > 100 µM
[2]
  TGI: > 100 µM
[3]
  TGI: > 82.6 µM
[4]
  TGI: > 100 µM
[52]
  TGI: > 40.7 µM
[5]
  TGI: > 100 µM
[6]
  TGI: > 100 µM
[7]
  TGI: > 43.2 µM
[8]
  TGI: > 100 µM
[9]
  TGI: > 100 µM
[10]
  TGI: > 100 µM
[11]
  TGI: > 100 µM
[12]
  TGI: > 100 µM
[53]
  TGI: > 100 µM
[13]
  TGI: > 100 µM
[14]
  TGI: > 57.6 µM
[15]
  TGI: > 100 µM
[16]
  TGI: > 100 µM
[17]
  TGI: > 100 µM
[54]
  TGI: > 100 µM
[18]
  TGI: > 100 µM
[19]
  TGI: > 100 µM
[20]
  TGI: > 100 µM
[21]
  TGI: > 100 µM
[22]
  TGI: 32.6 µM
[23]
  TGI: > 100 µM
[24]
  TGI: > 100 µM
[55]
  TGI: > 37.1 µM
[25]
  TGI: > 100 µM
[26]
  TGI: > 100 µM
[27]
  TGI: > 100 µM
[56]
  TGI: > 100 µM
[28]
  TGI: > 100 µM
[29]
  TGI: > 100 µM
[30]
  TGI: > 100 µM
[31]
  TGI: > 100 µM
[32]
  TGI: > 100 µM
[33]
  TGI: > 100 µM
[34]
  TGI: > 100 µM
[35]
  TGI: > 100 µM
[36]
  TGI: > 100 µM
[37]
  TGI: > 100 µM
[38]
  TGI: > 100 µM
[57]
  TGI: > 100 µM
[39]
  TGI: > 100 µM
[40]
  TGI: > 100 µM
[41]
  TGI: > 100 µM
[42]
  TGI: > 100 µM
[43]
  TGI: > 100 µM
[58]
  TGI: 26.8 µM
[44]
  TGI: > 100 µM
[45]
  TGI: > 100 µM
[46]
  TGI: > 100 µM
[47]
  TGI: > 100 µM
[48]
  TGI: > 100 µM
[49]
  TGI: > 100 µM
[50]
  TGI: > 100 µM
